Data on one compound can be found in US20210284618A1, “FURANOCHALCONES AS INHIBITORS OF CYP1A1, CYP1A2 AND CYP1B1 FOR CANCER CHEMOPREVENTION” (Council of Scientific & Industrial Research, priority 2016, published 2021).

Where only a bound is given, the exact number is not on record here.

As usually defined, the IC50 is the concentration that gives 50% inhibition. Low readings indicate greater potency, high ones weaker potency. As a reminder, the inhibition is the percentage by which the read-out fell short of the control.

Common to all, as to assay type: biochemical
The target of series [1] is T1, CYP1A2 (Homo sapiens, UniProt P05177).
T1 construct: host or cells: yeast microsomes (Saccharosomes)
T1 sequence (P05177 1-516): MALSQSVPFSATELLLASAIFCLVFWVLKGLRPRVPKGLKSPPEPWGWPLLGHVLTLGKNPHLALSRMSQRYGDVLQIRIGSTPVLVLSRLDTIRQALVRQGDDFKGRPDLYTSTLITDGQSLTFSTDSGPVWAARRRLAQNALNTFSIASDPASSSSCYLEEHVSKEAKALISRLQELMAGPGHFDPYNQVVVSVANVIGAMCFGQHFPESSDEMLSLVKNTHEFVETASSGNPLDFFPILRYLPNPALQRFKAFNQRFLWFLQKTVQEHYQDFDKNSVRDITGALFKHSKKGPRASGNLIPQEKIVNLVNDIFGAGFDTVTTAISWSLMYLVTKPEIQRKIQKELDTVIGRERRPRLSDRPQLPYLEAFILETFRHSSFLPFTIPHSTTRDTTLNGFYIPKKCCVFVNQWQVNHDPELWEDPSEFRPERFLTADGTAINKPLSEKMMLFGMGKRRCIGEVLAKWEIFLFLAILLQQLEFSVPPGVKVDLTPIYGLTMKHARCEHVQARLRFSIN
In words: CYP1A2 inhibition in Saccharosomes. Here is the method:
(§1) Example 25. IC50 determination for best compound against CYP1A1, CYP1B1 and other CYPs in Saccharosomes. Compounds were serially diluted to six different concentrations with 10% DMSO in a Sero-Well white microplate. The experiment was performed in a similar way as described above in examples 23 and 24.

Series [2] addresses T2, CYP2C8 (Homo sapiens, UniProt P10632).
T2 construct: host or cells: yeast microsomes (Saccharosomes)
T2 sequence (P10632 1-490): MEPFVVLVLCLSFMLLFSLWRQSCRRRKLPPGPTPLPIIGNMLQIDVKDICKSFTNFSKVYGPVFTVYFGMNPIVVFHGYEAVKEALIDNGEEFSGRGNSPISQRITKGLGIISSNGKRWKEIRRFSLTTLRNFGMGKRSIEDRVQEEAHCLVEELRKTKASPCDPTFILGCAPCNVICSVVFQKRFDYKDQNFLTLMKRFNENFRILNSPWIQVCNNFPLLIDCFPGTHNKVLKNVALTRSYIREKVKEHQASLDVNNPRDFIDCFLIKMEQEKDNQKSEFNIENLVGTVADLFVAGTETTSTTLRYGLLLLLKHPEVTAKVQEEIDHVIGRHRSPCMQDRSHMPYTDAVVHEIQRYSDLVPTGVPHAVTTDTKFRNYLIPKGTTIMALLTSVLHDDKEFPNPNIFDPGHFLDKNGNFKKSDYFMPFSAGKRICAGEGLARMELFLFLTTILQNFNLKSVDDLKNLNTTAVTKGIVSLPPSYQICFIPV
As to the kind of experiment: CYP2C8 inhibition in Saccharosomes. The conditions noted are these: Saccharosomes containing CYP2C8.

Series [3] deals with T3, CYP2C18 (Homo sapiens, UniProt P33260).
T3 construct: host or cells: yeast microsomes (Saccharosomes)
T3 sequence (P33260 26-490): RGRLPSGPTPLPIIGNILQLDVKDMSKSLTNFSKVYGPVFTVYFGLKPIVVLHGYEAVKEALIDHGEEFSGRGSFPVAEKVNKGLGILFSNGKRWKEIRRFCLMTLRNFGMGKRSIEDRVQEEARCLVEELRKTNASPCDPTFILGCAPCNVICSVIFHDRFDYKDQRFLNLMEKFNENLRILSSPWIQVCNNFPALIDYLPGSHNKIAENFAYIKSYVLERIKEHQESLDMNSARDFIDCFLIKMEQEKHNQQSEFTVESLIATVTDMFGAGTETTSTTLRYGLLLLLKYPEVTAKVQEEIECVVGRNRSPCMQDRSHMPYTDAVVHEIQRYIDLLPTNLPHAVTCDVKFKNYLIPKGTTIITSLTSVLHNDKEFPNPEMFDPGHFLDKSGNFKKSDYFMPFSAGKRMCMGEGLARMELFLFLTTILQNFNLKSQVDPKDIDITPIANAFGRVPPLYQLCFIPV
As to the kind of experiment: CYP2C18 inhibition in Saccharosomes. The settings on record: Saccharosomes containing CYP2C18.

For series [4], the target named is T4, CYP2C19 (Homo sapiens, UniProt P33261).
T4 construct: host or cells: yeast microsomes (Saccharosomes)
As to the kind of experiment: CYP2C19 inhibition in Saccharosomes. The conditions noted are these: Saccharosomes containing CYP2C19.

The target of series [5] is T5, CYP2E1 (Homo sapiens, UniProt P05181).
T5 construct: host or cells: yeast microsomes (Saccharosomes)
In words: CYP2E1 inhibition in Saccharosomes. As to the method: as §1

Series [6] has as its target T6, CYP1B1 (Homo sapiens, UniProt Q16678).
T6 sequence (Q16678 1-543): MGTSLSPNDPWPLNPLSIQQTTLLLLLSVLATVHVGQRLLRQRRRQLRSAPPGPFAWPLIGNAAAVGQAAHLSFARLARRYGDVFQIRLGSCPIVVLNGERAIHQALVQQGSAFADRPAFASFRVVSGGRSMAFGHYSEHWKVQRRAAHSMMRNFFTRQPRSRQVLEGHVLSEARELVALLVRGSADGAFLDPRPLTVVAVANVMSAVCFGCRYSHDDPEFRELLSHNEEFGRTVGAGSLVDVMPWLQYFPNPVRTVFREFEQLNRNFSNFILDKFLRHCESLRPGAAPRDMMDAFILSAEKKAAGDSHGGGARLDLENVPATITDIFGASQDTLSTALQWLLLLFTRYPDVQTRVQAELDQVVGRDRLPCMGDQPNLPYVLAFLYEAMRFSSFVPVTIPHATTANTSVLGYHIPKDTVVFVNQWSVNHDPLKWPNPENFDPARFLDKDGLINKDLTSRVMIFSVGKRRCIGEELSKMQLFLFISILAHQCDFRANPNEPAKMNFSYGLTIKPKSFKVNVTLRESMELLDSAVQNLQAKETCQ
In words: In-vitro CYP450 1B1 enzyme inhibition in Saccharosomes. On the set-up: purchased CYP Design Ltd; host or cells: yeast microsomes (Saccharosomes). Here is the method:
Example 24. In-vitro CYP450 1B1 enzyme inhibition in Saccharosomes™: Regenerating system consists of: 5 μl Solution A (183 mg of NADP++183 mg of glucose-6-phosphate+654 μl of 1.0 M magnesium chloride solution+9.15 ml of sterile ultra-pure water)+1 μl Solution B (250 Units of glucose-6-phosphate dehydrogenase+6.25 ml of 5 mM sodium citrate; mixed in a tube and made up to 10 ml with sterile ultra-pure water)+39 μl 0.2 M Kpi (0.6 ml of 1.0M K2HPO4+9.4 ml of 1.0 M KH2PO4 were mixed and made up to 50 ml with sterile ultra-pure water)+5 μl potential inhibitory compound.
as §1

T5 sequence (P05181 whole entry): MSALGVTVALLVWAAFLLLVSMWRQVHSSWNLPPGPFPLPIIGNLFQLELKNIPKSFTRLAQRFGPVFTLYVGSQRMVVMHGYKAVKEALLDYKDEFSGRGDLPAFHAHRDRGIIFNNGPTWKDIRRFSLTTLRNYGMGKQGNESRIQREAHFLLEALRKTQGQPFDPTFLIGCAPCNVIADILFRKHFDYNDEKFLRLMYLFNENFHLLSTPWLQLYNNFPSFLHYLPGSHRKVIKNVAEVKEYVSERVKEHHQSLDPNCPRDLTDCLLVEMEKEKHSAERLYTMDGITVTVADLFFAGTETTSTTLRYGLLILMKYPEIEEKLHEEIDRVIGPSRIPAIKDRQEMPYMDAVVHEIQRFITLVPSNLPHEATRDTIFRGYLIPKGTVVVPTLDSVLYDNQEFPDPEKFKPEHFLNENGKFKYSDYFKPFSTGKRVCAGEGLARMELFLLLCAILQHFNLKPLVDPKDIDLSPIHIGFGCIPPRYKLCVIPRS
T4 sequence (P33261 whole entry): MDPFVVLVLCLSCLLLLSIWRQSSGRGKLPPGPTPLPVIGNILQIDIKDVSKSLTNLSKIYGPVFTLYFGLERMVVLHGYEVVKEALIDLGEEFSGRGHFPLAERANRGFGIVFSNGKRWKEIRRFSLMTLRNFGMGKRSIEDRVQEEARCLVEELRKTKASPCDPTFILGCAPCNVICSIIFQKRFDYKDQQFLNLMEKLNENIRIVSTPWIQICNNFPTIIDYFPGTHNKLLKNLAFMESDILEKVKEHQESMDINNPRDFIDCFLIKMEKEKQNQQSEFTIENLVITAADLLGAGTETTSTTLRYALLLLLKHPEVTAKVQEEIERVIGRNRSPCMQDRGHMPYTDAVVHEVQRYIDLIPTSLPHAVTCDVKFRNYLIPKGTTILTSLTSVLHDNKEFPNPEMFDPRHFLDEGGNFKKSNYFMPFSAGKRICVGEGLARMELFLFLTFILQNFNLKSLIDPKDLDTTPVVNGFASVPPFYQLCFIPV

For `COc1c(C(=O)/C=C/c2cccnc2)c(O)c(OC)c2occc12` [Compound 8, 3-(4,7-dimethoxy-6-hydroxybenzofuran-5-yl)-1-(pyridin-3-yl)-3-oxopropene], the IC50 in series [1] turned out to be 0.166 µM; in series [6] it was 0.66 µM. Also, the inhibition at 20 µM is 24% in series [2], 63% in series [3] and 7% in series [4]. Further, the “Inhibition of CYP2E1 at 10 μM” value in series [5] is “No Inhibition”. Moreover, the “% inhibition of CYP1B1 in Saccharosomes at 10 μM” value in series [6] (10 μM test compound, 7-ethoxyresorufin, 10 µM) amounted to 80.3%. For the same compound, in series [6] (human, Saccharosomes (yeast-derived) with recombinant CYP1B1, probe 7-ethoxyresorufin (5 μl of 0.1 mM), % inhibition of CYP1B1 in Saccharosomes at 10 μM, 10 μM test compound, 7-ethoxyresorufin), the inhibition at 10 μM was above 80%.
